Data reported in ChEMBL document CHEMBL3351504, “Discovery and structure-based optimization of adenain inhibitors” (ACS Med Chem Lett, 2014).
Values after ≈ are worked out from the molar mass of the structure shown.

Legend:
[1] = Inhibition of human adenovirus serotype 8 adenain protease expressed in Escherichia coli […] (DE3) using Ac-WLRGG*ARC(PT14)-NH2 as substrate by FLT assay; parameters: species or system Human adenovirus 8
[2] = Inhibition of human adenovirus serotype 5 adenain protease expressed in Escherichia coli […] (DE3) using Ac-WLRGG*ARC(PT14)-NH2 as substrate by FLT assay; parameters: species or system Human adenovirus 5
[3] = Permeability from basolateral to apical side in human Caco2 cells; assay type: ADME, cell-based; details: Caco-2, read-out: permeability
[4] = High throughput equilibrium solubility at pH 6.8; assay type: physicochemical; details: buffer
[5] = Permeability from apical to basolateral side in human Caco2 cells; assay type: ADME, cell-based; details: Caco-2, read-out: permeability
Human adenovirus 5 = test: Antiviral activity against human adenovirus 5 infected in HEK293 cells assessed as reduction in viral induced cytopathogenicity incubated for 5 days by Celltiter-Glo luminescent cell viability assay; assay type: functional, organism-based; details: Human mastadenovirus C, HEK293, 120 h
[6] = Inhibition of adenovirus adenain; parameters: species or system unidentified adenovirus

SMILES	IC50 [1]	IC50 [2]	Papp B→A [3]	solubility thermodynamic [4]	Papp A→B [5]	IC50 [6]	EC50 (Human adenovirus 5)
N#CCNC(=O)CNC(=O)[C@H](Cc1ccccc1)NC(=O)Cc1cccc(Cl)c1	380 nM	280 nM	7.4 ×10⁻⁶ cm/s	150 µM (≈ 61.9 µg/mL)	1.2 ×10⁻⁶ cm/s	–	–
CC[C@H](C)[C@H](NC(=O)C(c1cc(Cl)cc(Cl)c1)N(C)C)C(=O)NCc1ccnc(C#N)n1 (mixture of isomers)	60 nM	20 nM	10.1 ×10⁻⁶ cm/s	61 µM	17.8 ×10⁻⁶ cm/s	–	6700 nM
CC[C@H](C)[C@H](NC(=O)[C@@H](O)c1cc(Cl)cc(Cl)c1)C(=O)NCC(=O)NCC#N	50 nM	50 nM	28 ×10⁻⁶ cm/s	–	3 ×10⁻⁶ cm/s	–	–
N#CCNC(=O)CNC(=O)[C@H](Cc1ccccc1)NC(=O)Cc1cc(Cl)cc(Cl)c1	70 nM	40 nM	8.1 ×10⁻⁶ cm/s	30 µM (≈ 13.4 µg/mL)	1.2 ×10⁻⁶ cm/s	–	–
CC(C)(C)[C@H](NC(=O)Cc1cc(Cl)cc(Cl)c1)C(=O)NCC(=O)NCC#N	80 nM	40 nM	23.8 ×10⁻⁶ cm/s	85 µM (≈ 35.1 µg/mL)	5.4 ×10⁻⁶ cm/s	–	–
N#CCNC(=O)CNC(=O)[C@H](Cc1ccccc1)NC(=O)[C@@H](O)c1cccc(Cl)c1	70 nM	–	3.2 ×10⁻⁶ cm/s	–	2.2 ×10⁻⁶ cm/s	–	–
N#Cc1ncc(C(=O)NCc2ccccc2)cn1	–	–	–	–	–	24000 nM	–
N#CCNC(=O)CNC(=O)C(Cc1ccccn1)NC(=O)Cc1cc(Cl)cc(Cl)c1 (racemic)	360 nM	140 nM	15 ×10⁻⁶ cm/s	111 µM (≈ 49.8 µg/mL)	0.7 ×10⁻⁶ cm/s	–	–
C[C@@H](O)[C@H](NC(=O)Cc1cc(Cl)cc(Cl)c1)C(=O)NCC(=O)NCC#N	80 nM	30 nM	–	121 µM (≈ 48.6 µg/mL)	–	–	–
N#CCNC(=O)CNC(=O)[C@H](CN)NC(=O)Cc1cc(Cl)cc(Cl)c1	80 nM	40 nM	1.2 ×10⁻⁶ cm/s	891 µM (≈ 344 µg/mL)	1 ×10⁻⁶ cm/s	–	–

Further lines, with some results ahead:

IC50 [1]	IC50 [2]	Papp B→A [3]	solubility thermodynamic [4]	Papp A→B [5]	IC50 [6]	SMILES	EC50 (Human adenovirus 5)
4 nM	2 nM	14.8 ×10⁻⁶ cm/s	52 µM (≈ 22 µg/mL)	23.2 ×10⁻⁶ cm/s	–	COC[C@H](NC(=O)Cc1cc(Cl)cc(Cl)c1)C(=O)NCc1ccnc(C#N)n1	3200 nM
3 nM	2 nM	14.1 ×10⁻⁶ cm/s	556 µM (≈ 235 µg/mL)	12.2 ×10⁻⁶ cm/s	–	C[C@@H](O)[C@H](NC(=O)Cc1cc(Cl)cc(Cl)c1)C(=O)NCc1ccnc(C#N)n1	1200 nM
40 nM	30 nM	7.5 ×10⁻⁶ cm/s	170 µM (≈ 86 µg/mL)	1.2 ×10⁻⁶ cm/s	40 nM	CS(=O)(=O)N[C@H](C(=O)N[C@@H](Cc1ccccc1)C(=O)NCC(=O)NCC#N)c1cccc(Cl)c1	–
30 nM	6 nM	–	50 µM	–	–	CC(C(=O)N[C@@H](Cc1ccccc1)C(=O)NCC(=O)NCC#N)c1cc(Cl)cc(Cl)c1 (mixture of isomers)	–
20 nM	8 nM	11.3 ×10⁻⁶ cm/s	236 µM (≈ 106 µg/mL)	18.3 ×10⁻⁶ cm/s	–	CC[C@H](C)[C@H](NC(=O)[C@@H](O)c1cc(Cl)cc(Cl)c1)C(=O)NCc1ccnc(C#N)n1	7200 nM
30 nM	5 nM	18 ×10⁻⁶ cm/s	1000 µM (≈ 429 µg/mL)	2.6 ×10⁻⁶ cm/s	–	CC[C@H](C(=O)N[C@H](C(=O)NCC(=O)NCC#N)[C@@H](C)O)c1cc(Cl)cc(Cl)c1	–
20 nM	10 nM	12.2 ×10⁻⁶ cm/s	5 µM (≈ 2.21 µg/mL)	7.3 ×10⁻⁶ cm/s	–	CC[C@H](C(=O)N[C@H](C(=O)NCC(=O)NCC#N)C(C)(C)C)c1cc(Cl)cc(Cl)c1	2500 nM
